According to patent publication US5219867A, “Platelet aggregation inhibitory agents” (priority 1992, dated 1993):
“And” between values parts separate entries of the source, which are not always exact repeats. Identical values can stand only once. Counter-ions that a name gives are not always drawn. Like-named read-outs stand apart in the source and are kept apart here.

What was measured:
male ICR mice = test: Mouse antithrombotic assay (collagen-epinephrine thromboembolic death); format: in vivo; conditions: for ED50: ip, 30 min before i.v. collagen-epinephrine challenge, read-out: ED50 (protection from thromboembolic death)
Protocol: The method employed is similar to Myers, et al's (Proc. Soc. Exp. Biol. Med., Vol. 183, Pages 86-91, 1986) modification of the procedure of DiMinno and Silver (J. Pharmacl. Exp. Therap., Vol. 225, Pages 57-60, 1983). Male ICR mice 25 g-35 g were used in this study. Collagenreagent Horm, containing 1 mg/ml of native collagen fibrils from equine tendons suspended in isotonic glucose solution of pH 2.7 was obtained from Horm -Chemie Momchem GMBH, Munchen, Germany; Epinephrine Injection, USP 1 mg/ml was from Abbott Laboratories, North Chicago, Ill.
Rac.I.2HBr was dissolved in physiological saline and (+)-I (I-C) was dissolved in saline at pH 6.5 at a concentration which yielded the desired dosage when 10 ml/kg of the compound solution was injected intraperitoneally (i.p.) to the mouse. Control mice received 10 ml/kg of the solvent/vehicle intraperitoneally.
Thirty (30) minutes after administration of test compound, the mouse was challenged with intravenous collagen-epinephrine suspension. The procedure is as follows: Fifteen (15) minutes after i.p. administration of test compound, the mouse was given 50-60 mg/kg of pentobarbital sodium (Nembutal). About 10-12 minutes later (when the mouse was anesthetized) the jugular vein was surgically exposed in preparation for the intravenous collagen-epinephrine injection.
Thirty (30) minutes after i.p. administration of the test compound (and about 15 minutes after i.p. Nembutal) the mouse's platelets were challenged with 0.00333 ml/gm (0.10 ml/30 gm mouse) of the intravenous collagen-epinephrine suspension into the jugular vein. [The collagen-epinephrine suspension contained 0.15 mg collagen fibrils and 0.018 mg of epinephrine per ml of the suspension]. The rate of injection for the collagen-epinephrine suspension was consistent from one mouse to the next.
Graded doses of the compound were administered to mice prior to the aggregation challenge. The ED50 was determined graphically from a Probit-log plot of percent of mice protected (Probit) by each dose (log scale) of the compound. […]

[1] = system: cytosolic ionized calcium in human platelets; test: Inhibition of collagen-induced rise in cytosolic ionized calcium (aequorin luminescence); format: cell-based; conditions: for IC50: 1mM [Ca2+]o (n = 4), read-out: Ica50 ± S.E. Collagen-induced (50% inhibition of collagen-induced rise in cytosolic ionized calcium)
Protocol: Procedure for Cytosolic Ionized Calcium Determination. The basic procedure of Yamaguchi, et al. (Thromb. Res., Vol. 44, Pages 165-174, 1986) was followed. Blood was collected from six blood donors, aged 24-38 years, who had fasted overnight and affirmed abstinence from alcohol, caffeine and medications of any kind for a period of at least one week prior to donation. […] Platelets were collected (800 g, 15 min), resuspended in and washed (800 g, 15 min) with HEPES-buffered saline (140 mM NaCl, 2.7 mM KCl, 0.1% bovine albumin, 0.5% glucose, 3.8 mM HEPES, pH 7.6) with EGTA (5 mM) and PGE1 (1 μM). The platelet pellet was resuspended in 90 μl of the same buffer and added to 20μl of 3 mg/ml aequorin solution in a 1.5 ml Eppendorf centrifuge tube. Six 1 μl aliquots of DMSO were added at 90 second intervals with brief, gentle mixing on a Vortex mixer and the platelet suspension was incubated 2 minutes after the last addition. One ml of HEPES-buffered saline was added, gently mixed, and again incubated for 2 minutes. The platelets were pelleted (1000 g, 30 sec), resuspended in HEPES-buffered saline to which was added either 1 mM Mg Cl2, (calcium-free buffer) or 1 mM Mg Cl2 and 1 mM Ca Cl2 (calcium buffer), depending on the experiment. The platelet count was adjusted to 3-4×10^5 platelets/μl.
The Platelet Ionized Calcium Aggregometer (Chrono-Log Corp., Ltd., Havertown, Pa.) was used to obtain simultaneous aggregation and luminescence data under the following experimental conditions: (1) platelet suspension, 1 ml, was equilibrated at 37° C. with stirring at 1100 rpm; (2) 100 μl (1.2 μg) of fibrinogen was added; (3) the vehicle (95% ethanol) or the test compound in vehicle was added; (4) when needed, 10 μl of the desired concentration of EGTA was added 30 seconds prior to addition of the agonist; then (5) the agonist (Collagen, 5 μg or 20 μg) was added and the time noted. At one minute after addition of the agonist in Channel 1, a platelet sample containing fibrinogen in Channel 2 was lysed with 10 μl of a 1:1 solution of Triton X-100 (final concentration 0.005%) 10 mM CaCl2 (final concentration 0.5 mM). Treated and control […] data were corrected for time dependent decay of fluorescence using data from the untreated lysed controls.
Normally 4 compound-treated samples (at 4 different concentrations) interspersed with 3 control samples were evaluated at 4.5 minute intervals starting 18-23 minutes after the DMSO treatment. The Ia50 values were calculated as described earlier. The compound concentrations effecting 50% inhibition (Ica50) of collagen-induced cytosolic ionized calcium values was determined by linear regression analysis.
Compounds I-rac, (+)-I,(IC) and (-)-I(IA) were evaluated. The Ia50 (collagen-induced aggregation) and Ica50 (compound concentration required to inhibit by 50% the collagen-induced rise in cytosolic ionized calcium)values determined with platelet suspensions in HEPES-buffered saline containing 1.0 mM CaCl2 were as follows:
Collagen-stimulation of platelets suspended in media containing 1.0 mM of Ca^2+ (FIG. 13) or 1.0 mM (FIG. 14A) or 2.0 mM (FIG. 14B) EGTA (a calcium chelator) gave […] cytosolic ionized calcium peak (aequorin-indicated luminescence). Contrarily, two phases of Ca^2+ mobilization were observed when aequorin-loaded human platelets suspended in a medium containing 0.1 mM EGTA were stimulated with collagen (FIG. 14, designation D). The first corresponded to platelet shape change and the second peak to aggregation. […] The platelet suspension (1.0 ml) was pre-incubated with 1.0 μl of (A) 95% ethanol, (B) a solution of Compound I (14.59 μM) in 95% ethanol, or (C) a solution of Compound I (23.87 μM) in 95% ethanol. Collagen (20 μg) was added at time indicated by the arrows. Luminescence was again recorded at a gain of 0.5. […] Accordingly, the stereo-selective inhibitory properties of the compounds of the present invention appear to be mediated through the inhibition of [Ca^2+ ].

With `CCN(CC)C(=O)C1CCCN(Cc2ccc(CN3CCCC(C(=O)N(CC)CC)C3)cc2)C1` (racemic) [Compound I, α-α'-Bis[3-(N,N-diethyl-carbamoyl)piperidino]-p-xylene dihydrobromide] the ED50 (male ICR mice) was 104 mg/kg and 164 µmol/kg, the “Effect on platelet shape change peak and aggregation peak of Ca2+ mobilization” value ([1]; 0.1 mM EGTA, collagen 20 μg, Compound I 14.59 μM or 23.87 μM (FIG. 15)) was “inhibited both the platelet shape change peak and the aggregation peak” and the IC50 ([1]; Homo sapiens, Platelet, collagen-induced) was 21.2 µM.
With `CCN(CC)C(=O)C1CCCN(Cc2ccc(CN3CCCC(C(=O)N(CC)CC)C3)cc2)C1` (single isomer, unassigned) [IC, α-α'-Bis(3-N,N-diethylcarbamoyl)piperidino]-p-xylene dihydrobromide] the “Potency in protecting mice from thromboembolic death relative to racemic I.2HBr” value (male ICR mice; i.p.) was “approximately three times more potent”, the ED50 (male ICR mice) was 33.5 mg/kg and 71.2 µmol/kg and the IC50 ([1]; collagen-induced, listed as IC (+)-I, dihydrobromide) was 3.6 ± 1.2 µM. The “Potency in inhibiting the rise of cytosolic ionized calcium compared to racemic I, I-A and IB” value ([1]; collagen-induced, Ca2+-containing medium) was “much more potent”.
